Experimental data: ChEMBL document CHEMBL6127051, “Hydrazinecarboxamides: Comprehensive review of their anticancer, anticonvulsive, anti-inflammatory, enzyme inhibition, antioxidant and other activities” (Eur J Med Chem, 2024)
Converted amounts (≈) assume the structure as drawn.

Legend:
MCF7 [1] = experiment: Cytotoxicity against human MCF7 cells assessed as reduction in cell growth; type: functional, cell-based
PC-3 [2] = experiment: Cytotoxicity against human PC-3 cells; type: functional, cell-based
[3] = Cytotoxicity against human HEK cells; type: toxicity, cell-based
PC-3 [4] = experiment: Cytotoxicity against human PC-3 cells assessed as inhibition of cell growth; type: functional, cell-based
MCF7 [5] = experiment: Cytotoxicity against human MCF7 cells assessed as inhibition of cell growth; type: functional, cell-based
Cholinesterase = Cholinesterase (Equus caballus, UniProt P81908); experiment: Inhibition of equine serum BChE using butyrylthiocholine iodide as substrate measured after 15 mins by Ellman's method
HepG2 [6] = experiment: Antiproliferative activity against human HepG2 cells assessed as reduction in cell viability incubated for 72 hrs by MTT assay; type: functional, cell-based; conditions: HepG2, 72 h
A549 [7] = experiment: Antiproliferative activity against human A549 cells assessed as reduction in cell viability measured for 24 hrs by MTT assay; conditions: A549, 24 h
[8] = target: T1, Retinoic acid receptor RXR-alpha (Homo sapiens, UniProt P19793); experiment: Antagonist activity at RXRalpha (unknown origin) by Alpha Screen assay
T1 sequence (P19793 whole entry): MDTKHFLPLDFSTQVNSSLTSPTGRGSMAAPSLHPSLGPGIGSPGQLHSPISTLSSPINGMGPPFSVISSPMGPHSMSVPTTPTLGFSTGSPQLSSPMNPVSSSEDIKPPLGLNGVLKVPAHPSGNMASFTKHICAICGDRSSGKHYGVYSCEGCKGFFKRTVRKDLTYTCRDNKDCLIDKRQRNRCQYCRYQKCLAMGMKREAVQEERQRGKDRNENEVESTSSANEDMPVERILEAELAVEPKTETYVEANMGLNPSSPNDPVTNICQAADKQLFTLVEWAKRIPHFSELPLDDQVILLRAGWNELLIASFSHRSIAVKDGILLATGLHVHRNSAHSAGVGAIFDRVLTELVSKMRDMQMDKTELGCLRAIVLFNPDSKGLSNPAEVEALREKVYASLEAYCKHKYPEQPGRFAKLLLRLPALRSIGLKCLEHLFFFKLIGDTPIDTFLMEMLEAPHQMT

HepG2 [9] = experiment: Antiproliferative activity against human HepG2 cells assessed as reduction in cell viability measured for 24 hrs by MTT assay; conditions: HepG2, 24 h
A549 [10] = experiment: Antiproliferative activity against human A549 cells; type: functional, cell-based
MCF7 [11] = experiment: Antiproliferative activity against human MCF7 cells assessed as reduction in cell viability incubated for 72 hrs by MTT assay; type: functional, cell-based; conditions: MCF7, 72 h
A549 [12] = experiment: Antiproliferative activity against human A549 cells assessed as reduction in cell viability by MTT assay; type: functional, cell-based
[13] = Antioxidant activity assessed as DPPH radical scavenging activity at 10 ug/ml; type: functional; conditions: dose 10.0 µg/ml
MCF7 [14] = experiment: Anticancer activity against human MCF7 cells assessed as reduction in cell growth measured after 3 days by MTT assay; type: functional, cell-based; conditions: MCF7, 72 h
PANC-1 = experiment: Induction of apoptosis in human PANC-1 cells assessed as apoptotic cells at 2 uM incubated for 24 hrs by flow cytometric analysis relative to control; type: functional
[15] = Antiproliferative activity against human MRC5 cells assessed as reduction in cell growth; type: toxicity, cell-based
MCF7 [16] = experiment: Anticancer activity against human MCF7 cells assessed as reduction in cell growth incubated for 24 hrs by MTT assay; type: functional, cell-based; conditions: MCF7, 24 h
PC-3 [17] = experiment: Anticancer activity against human PC-3 cells assessed as inhibition of cell growth at 3 uM incubated for 48 hrs by MTT assay relative to control; type: functional; set-up: scale not given: the % may be the effect or the level left
A549 [18] = experiment: Anticancer activity against human A549 cells assessed as inhibition of cell growth at 3 uM incubated for 48 hrs by MTT assay relative to control; type: functional; set-up: scale not given: the % may be the effect or the level left
MCF7 [19] = experiment: Antiproliferative activity against human MCF7 cells assessed as reduction in cell viability measured for 72 hrs by MTT assay; type: functional, cell-based; conditions: MCF7, 72 h
Mus musculus [20] = experiment: Anticonvulsant activity in ip dosed MES induced Kunming mouse seizure model; type: functional
UO-31 = experiment: Antiproliferative activity against human UO-31 cells assessed as inhibition of cell growth at 10 uM relative to control; type: functional; set-up: scale not given: the % may be the effect or the level left
NCI-H460 = experiment: Antiproliferative activity against human NCI-H460 cells by MTT assay; type: functional, cell-based
MCF7 [21] = experiment: Antiproliferative activity against human MCF7 cells by MTT assay; type: functional, cell-based
MCF7 [22] = experiment: Antiproliferative activity against human MCF7 cells; type: functional, cell-based
MDA-MB-231 = experiment: Antiproliferative activity against human MDA-MB-231 cells; type: functional, cell-based
HeLa = experiment: Cytotoxicity against human HeLa cells assessed as reduction in cell viability by MTT assay; type: functional, cell-based
HCT-116 = experiment: Cytotoxicity against human HCT-116 cells assessed as reduction in cell viability by MTT assay; type: functional, cell-based
MCF7 [23] = experiment: Cytotoxicity against human MCF7 cells assessed as reduction in cell viability by MTT assay; type: functional, cell-based
HepG2 [24] = experiment: Cytotoxicity against human HepG2 cells assessed as reduction in cell viability by MTT assay; type: functional, cell-based
[25] = Inhibition of Escherichia coli beta-glucuronidase
Mus musculus [26] = experiment: Anticonvulsant activity in ip dosed scPTZ induced Kunming mouse seizure model; type: functional
[27] = Antioxidant activity assessed as ABTS radical scavenging activity after 30 mins by spectrophotometric analysis; type: functional

Sequence of Cholinesterase (P81908 whole entry): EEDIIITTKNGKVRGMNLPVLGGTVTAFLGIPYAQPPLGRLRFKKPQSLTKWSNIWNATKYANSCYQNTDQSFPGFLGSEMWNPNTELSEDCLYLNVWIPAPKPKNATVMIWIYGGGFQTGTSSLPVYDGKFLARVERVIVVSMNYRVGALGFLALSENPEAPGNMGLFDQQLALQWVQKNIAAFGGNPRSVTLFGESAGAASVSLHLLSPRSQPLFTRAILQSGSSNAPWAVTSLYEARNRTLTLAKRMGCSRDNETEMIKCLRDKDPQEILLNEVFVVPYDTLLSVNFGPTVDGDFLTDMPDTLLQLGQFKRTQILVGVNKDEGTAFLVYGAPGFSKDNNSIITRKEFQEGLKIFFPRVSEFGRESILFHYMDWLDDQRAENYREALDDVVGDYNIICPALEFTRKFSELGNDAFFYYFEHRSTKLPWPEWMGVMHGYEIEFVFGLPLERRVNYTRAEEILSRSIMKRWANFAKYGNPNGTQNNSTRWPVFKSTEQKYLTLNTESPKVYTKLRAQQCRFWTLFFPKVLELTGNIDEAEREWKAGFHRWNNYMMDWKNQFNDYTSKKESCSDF

O=C(NO)NNC(=O)n1nnc2ccccc21 gave an IC50 (MCF7 [1]) of 79 µM.
CCc1nc2cc(Cl)c(Cl)cc2n1CC(=O)NNC(=O)Nc1ccccc1 showed an IC50 (PC-3 [2]) of 25.2 µg/mL (≈ 62 µM), an IC50 [3] of 127 µg/mL (≈ 312 µM) and an IC50 (PC-3 [4]) of 25.2 µg/mL (≈ 62 µM). For the same molecule, the IC50 (MCF7 [5]) was 25.2 µg/mL (≈ 62 µM).
CNC(=O)NNC(=O)c1ccc(Cl)cc1 showed an IC50 (Cholinesterase) of 22 µM.
Cc1ccc(S(=O)(=O)NC(=O)NNC(=O)Cn2c(C(C)C)nc3ccccc32)cc1 gave an IC50 (HepG2 [6]) of 80.7 µM.
Molecule CCCCNC(=O)NNC(=O)c1ccc(Nc2nccc(-c3ccncc3)n2)cc1 has an IC50 (A549 [7]) of 8.39 µM, an EC50 [8] of 1.05 µM and an IC50 (HepG2 [9]) of 2.17 µM.
Molecule COc1cc(NC(C)CCCNC(=O)NNC(=O)NOC(=O)c2ccccc2)c2ncccc2c1 (configuration not stated) has an IC50 (A549 [10]) of 1.5 µM, an IC50 (MCF7 [11]) of 1 µM and an IC50 (A549 [12]) of 4 µM.
COc1ccc(/C=C2\N=C(C)N(NC(=O)N3c4ccccc4C=Cc4ccccc43)C2=O)cc1 showed an Activity [13] of 73.9%.
Molecule O=C(NNC(=O)n1nnc2ccccc21)NC1CCCC1 has an IC50 (MCF7 [1]) of 79 µM.
COc1cc(NC(C)CCCNC(=O)NNC(=O)/C=C/c2ccc(OC)c(OC)c2)c2ncccc2c1 (configuration not stated) showed an IC50 (MCF7 [14]) of 0.03 µM.
Work on COc1ccc(NC(=O)NNC(=O)c2oc3ccccc3c2CN2CCN(c3ccccc3)CC2)cn1 yielded an Activity (PANC-1) of 29.93% and an IC50 [15] of 74 µM.
COc1cc(NC(C)CCCNC(=O)NNC(=O)/C=C/c2cccc(C(F)(F)F)c2)c2ncccc2c1 (configuration not stated) gave an IC50 (MCF7 [14]) of 0.03 µM.
NNC(=O)Nc1nc2ccccc2o1 showed an IC50 (MCF7 [16]) of 218 µM.
In the case of O=C(NNC1=NS(=O)(=O)c2ccccc2N1c1ccccc1)Nc1cc(C(F)(F)F)cc(C(F)(F)F)c1, the Activity (PC-3 [17]) is reported as “>=71%” and the Activity (A549 [18]) is reported as 99%.
Work on O=C(NNC(=O)c1cc2ccccc2[nH]1)Nc1ccc(Cl)c(C(F)(F)F)c1 yielded an IC50 (MCF7 [19]) of 1.2 µM.
COc1cc(C(=O)NN2C(=O)C(=O)N(Cc3ccccc3)C2=O)cc2c1OCCO2 gave an ED50 (Mus musculus [20]) of 13.7 mg/kg.
Molecule O=C(NNC(=O)n1nnc2ccccc21)NC(c1ccccc1)c1ccccc1 has an IC50 (MCF7 [1]) of 79 µM.
Molecule Cc1nc(NC(=O)Nc2ccccc2)sc1C(=O)NNC(=O)Nc1ccccc1 has an Activity (UO-31) of 14.8%.
COc1cc(NC(C)CCCNC(=O)NNC(=O)/C=C/c2ccc3c(c2)OCO3)c2ncccc2c1 (configuration not stated) gave an IC50 (MCF7 [14]) of 0.03 µM.
With O=C(NCCc1ccccc1)NNC(=O)n1nnc2ccccc21 the IC50 (MCF7 [1]) was 79 µM.
Work on Cc1nc(-c2cccnc2)ccc1C(=O)NNC(=O)Nc1ccc(F)cc1F yielded an IC50 (NCI-H460) of 8.89 µM and an IC50 (MCF7 [21]) of 8.89 µM.
With Cc1ccc(NC(=O)NNC(=O)c2cc3ccccc3[nH]2)cc1 the IC50 (MCF7 [22]) was 9.03 µM, the IC50 (MDA-MB-231) was 9.03 µM and the IC50 (MCF7 [19]) was 1.2 µM.
Cc1c(C(=O)NNC(=O)Nc2ccc([N+](=O)[O-])cc2)nnn1Cc1nc2ccccc2[nH]1 showed an IC50 (HeLa) of 19.1 µM, an IC50 (HCT-116) of 32.8 µM and an IC50 (MCF7 [23]) of 16.6 µM. For the same molecule, the IC50 (HepG2 [24]) was 25 µM.
COc1ccc(NC(=O)NNC(=O)CCc2ccccc2OC)cc1 gave an IC50 [25] of 15.5 µM.
CCCCCCCCCCCCCNC(=O)NNC(=O)c1cccc(Br)c1 gave an IC50 (Cholinesterase) of 22 µM.
CCOC(=O)C1(NC(=O)NNS(=O)(=O)c2ccccc2Cl)CC1(C)C (configuration not stated) showed an ED50 (Mus musculus [26]) of 82.6 mg/kg and an ED50 (Mus musculus [20]) of 82.6 mg/kg.
For COc1cc(NC(C)CCCNC(=O)NNC(=O)NC(=O)c2ccccc2)c2ncccc2c1 (configuration not stated), the IC50 (A549 [10]) was 1.5 µM, the IC50 (MCF7 [11]) was 1 µM and the IC50 (A549 [12]) was 4 µM.
COc1cc(NC(C)CCCNC(=O)NNC(=O)NO)c2ncccc2c1 (configuration not stated) showed an IC50 (A549 [10]) of 1.5 µM, an IC50 (MCF7 [11]) of 1 µM and an IC50 (A549 [12]) of 4 µM.
For CCOC(=O)C1(NC(=O)NNc2ccc(F)c(Cl)c2)CC1(C)C (configuration not stated), the ED50 (Mus musculus [26]) was 58.1 mg/kg.
With COc1cc(NC(C)CCCNC(=O)NNC(=O)/C=C/c2ccc(Cl)cc2)c2ncccc2c1 (configuration not stated) the IC50 (MCF7 [14]) was 0.03 µM.
For CC(C)N1C(=O)C(=O)N(NCC(=O)N(c2ccccc2)C2(C(N)=O)CCCC2)C1=O, the ED50 (Mus musculus [20]) was 34.4 mg/kg.
With COc1ccc(/C=C/C(=O)NNC(=O)NCCCC(C)Nc2cc(OC)cc3cccnc23)cc1 (configuration not stated) the IC50 (MCF7 [14]) was 0.03 µM.
Work on O=C(Cn1c(Cc2ccccc2)nc2ccccc21)NNC(=O)Nc1ccccc1 yielded an Activity [27] of 126%.
